{
  "source": "patent US4173650A",
  "about": "“Cis-2-benzoyl-3-hydroxy-2-alkenonitriles as anti-inflammatory agents” (American Cyanamid Company, priority 1978, dated 1979)",
  "key": {"[1]": {"tested_on": "Carrageenin-Induced Edema", "test": "Carrageenin-induced edema in the rat", "type": "in vivo, rat (Royal Hart, Wistar strain)", "conditions": "by gavage, 5 hours after drug (4 hours after carrageenin challenge); dose not given", "method": "In determining the acute anti-inflammatory activity of the cis-2-benzoyl-3-hydroxy-2-alkenonitriles of the present invention, Royal Hart, Wistar strain rats, ranging in weight from 80 to 90 grams were used. The rats were fasted overnight prior to dosing but had free access to water. The test compounds were administered in aqueous suspension, by gavage, in a volume of 1.7 ml. per 50 grams of rat [corresponds to hydration volume used by Winter, et al., Proc. Soc. […] The phlogistic agent used was carrageenin prepared as a sterile 1% suspension in 0.9% aqueous sodium chloride for routine testing. A volume of 0.05 ml. was injected through a 26 gauge needle into the plantar tissue of the right hind paw. Measurements were made 5 hours after drug administration (4 hours after carrageenin challenge). Volumes of both the normal and carrageenin inflammed feet were determined. The difference between the two measurements is considered to be the increased edema due to the carrageenin administration. Results are expressed as a C/T efficacy ratio (edema of control animals/edema of treated animals)."}, "[2]": {"tested_on": "Adjuvant Induced Arthritis", "test": "Adjuvant-induced arthritis in the rat", "type": "in vivo, rat (Royal Hart, Wistar strain)", "conditions": "for inhibition in vivo at 50 mg/kg: oral 50 mg./kg.; for inhibition in vivo at 25 mg/kg: oral 25 mg./kg.", "method": "Groups of three Royal Hart, Wistar strain rats weighing 200±10 g. each were injected intradermally in the right hind paw with Freund's adjuvant (dried human tubercle bacilli in a mineral oil vehicle) at a dose of 2 mg./kg. of body weight. The test compounds were administered orally in a 1.5% starch vehicle at various doses once daily on days 0 to 13 post challenge. Control rats were treated in a similar manner, but given only starch vehicle. On the 14th and 21st day post challenge the diameter of the injected paw was measured by micrometer caliper. The volume of inflamed paws were estimated from these measurements and the effects of each compound are expressed as percent inhibition of swelling as compared to controls. Table II records the results of these tests conducted with representative compounds of this invention and known anti-inflammatory agents. The active compounds of this invention suppress the progression of the arthritis and associated joint deterioration.\nAdjuvant-induced experimental polyarthritis is a specific systemic disease of the rat which shares interesting similarities with rheumatoid arthritis. Specifically the histology of the two diseases bears a remarkable resemblence as shown by C. M. Pearson et al., Am. J. Path. 42, 73 (1963). E. M. Glenn, Am. J. Vet. Res. 27, (116), 339 (1966) has classified adjuvant-induced polyarthritis as a crippling and permanent deformity resulting from diffuse connective tissue involvement areound certain susceptible joints in the rat. Zahiri et al, Can. Med. Ass. J., 101, 269 (1969) have shown that the fusiform swelling of the distal joints is associated with edema, congestion and synovitis including pannus formation, all of which precede the ultimate destruction of bone and cartilage. Furthermore, Zahiri et al., indicate that the cartilage destruction in the joint is due to an invasive pannus which originates in the marginal synovium and extends across the articular surface to erode it. […] The most pointed reference showing the relationship between arthritis and joint deterioration is an X-Ray analysis of adjuvant arthritis in the rat by Blackham et al., Agents and Actions 7, 145 (1977). In a similar manner, inhibition of the progress of arthritis in paws of rats treated with the compounds of this invention also lessens associated joint deterioration."}, "[3]": {"tested_on": "Migration Inhibitory Factor", "test": "Migration inhibitory factor in the guinea pig (capillary tube macrophage migration assay, direct MIF assay)", "type": "cell-based, guinea pig (male Hartley)", "conditions": "number of tests wherein the percent reversal of inhibition =15%", "description": "Rheumatoid arthritis is a chronic inflammatory disease that is characterized by the migration of lymphocytes, macrophages and polymorphonuclear leukocytes to the sites of inflammation. The migration of lymphocytes and macrophages and their multiplication in situ is one reason for the very large increase in size of the normally thin synovial membrane, the membrane that encloses the joint space. The synovial membrane that has been transformed in this manner, slowly grows over the aricular surfaces and causes the destruction of the articular cartilage and other connective tissue structures of the joint. One of the mechanisms for the destruction of articular cartilage by the synovium is believed to be through the release of various hydrolytic enzymes by the resident macrophages which have been immobilized and activated by migration inhibitory factor (MIF). Macrophages stimulated by MIF are termed \"activated macrophages\" and undergo the following changes: (a) increased glucose oxidation, (b) increased ruffling of plasma membrane and increased spreading of cells, (c) synthesis and secretion of neutral proteases, (d) release of preformed lysosomal enzymes, (e) decreased migration from a capillary tube. […] Drugs that can therefore block the release of MIF by lymphocytes or the activation of macrophages by MIF should be clinically effective in retarding the destructive joint damage which occurs in rheumatoid arthritis. Drugs can be tested as MIF inhibitors by using the capillary tube migration assay as follows.\nMale Hartley guinea pigs, weighing between 300 and 600 grams, are injected intraperitoneally with 25 ml Marcal 52 Oil® (Humble Oil). Three to four days later, the guinea pigs are sacrificed by decapitation, the peritoneum opened, and the exudate aspirated into a separatory funnel after the addition of 50 ml of cold Hank's solution. This is repeated two times. The oil phase is discarded and the cell supsension is spun down at 1200 r.p.m. for ten minutes. The cells are resuspended in Hank's solution and spun down at 900 r.p.m. for five minutes. This is repeated two times. Viability of the cells is then determined using trypan blue. In all experiments, viability is greater than 90%. The cell concentration is then adjusted to give a 10% packed cell volume by the addition of the appropriate amount of MEM® (Gibco 109)+15% guinea pig serum. […] To determine the area of cell migration out of the capillary tube onto the chamber surface, the chambers are projected onto a microscope screen, the area traced onto paper, and then measured using a planimeter. […]"}, "arthritic paw swelling": {"tested_on": "arthritic paw swelling", "conditions": "cited from earlier work"}, "[4]": {"conditions": "336 h, once daily days 0 to 13, read-out: % Inhibition of Swelling, Day 14"}, "[5]": {"conditions": "504 h, once daily days 0 to 13, read-out: % Inhibition of Swelling, Day 21"}},
  "note": "Read-outs that look alike come from different tables or passages of the source.",
  "data": [
    {"smiles": "CC(=O)Oc1ccccc1C(=O)O", "note": "[Aspirin, reference compound]", "values": [
      {"measurement": "C/T Ratio (edema of control animals/edema of treated animals)", "setting": "[1]", "value": 2.86}
    ]},
    {"smiles": "C/C(O)=C(\\C#N)C(=O)c1cccc(Cl)c1C", "note": "[Cis-2-(3-chloro-o-toluoyl)-3-hydroxycrotononitrile]", "values": [
      {"measurement": "inhibition in vivo at 50 mg/kg", "setting": "[2]; [4]", "value": 61, "unit": "%"},
      {"measurement": "inhibition in vivo at 50 mg/kg", "setting": "[2]; [5]", "value": 17, "unit": "%"},
      {"measurement": "#Actives/Total Tests", "setting": "[3]; 5×10^-5 M", "value": "3/5"}
    ]},
    {"smiles": "C/C(O)=C(\\C#N)C(=O)c1cccc(F)c1", "note": "[Cis-2-(m-fluorobenzoyl)-3-hydroxycrotononitrile]", "values": [
      {"measurement": "C/T Ratio (edema of control animals/edema of treated animals)", "setting": "[1]", "value": 1.61},
      {"measurement": "inhibition in vivo at 50 mg/kg", "setting": "[2]; [4]", "value": 48, "unit": "%"},
      {"measurement": "inhibition in vivo at 50 mg/kg", "setting": "[2]; [5]", "value": 37, "unit": "%"}
    ]},
    {"smiles": "C/C(O)=C(\\C#N)C(=O)c1ccccc1Cl", "note": "[Cis-2-(o-chlorobenzoyl)-3-hydroxycrotononitrile]", "values": [
      {"measurement": "inhibition in vivo at 50 mg/kg", "setting": "[2]; [4]", "value": 39, "unit": "%"},
      {"measurement": "inhibition in vivo at 50 mg/kg", "setting": "[2]; [5]", "value": 29, "unit": "%"}
    ]},
    {"smiles": "C/C(O)=C(\\C#N)C(=O)c1ccccc1F", "note": "[Cis-2-(o-fluorobenzoyl)-3-hydroxycrotononitrile]", "values": [
      {"measurement": "C/T Ratio (edema of control animals/edema of treated animals)", "setting": "[1]", "value": 2.18}
    ]},
    {"smiles": "C/C(O)=C(\\C#N)C(=O)c1ccc(Br)cc1", "note": "[Cis-2-(p-bromobenzoyl)-3-hydroxycrotononitrile]", "values": [
      {"measurement": "#Actives/Total Tests", "setting": "[3]; 10 μg./ml.", "value": "2/3"}
    ]},
    {"smiles": "C/C(O)=C(\\C#N)C(=O)c1ccc(Cl)cc1", "note": "[Cis-2-(p-chlorobenzoyl)-3-hydroxycrotonitrile]", "values": [
      {"measurement": "inhibition in vivo at 25 mg/kg", "setting": "[2]; [4]", "value": 58, "unit": "%"},
      {"measurement": "inhibition in vivo at 25 mg/kg", "setting": "[2]; [5]", "value": 15, "unit": "%"}
    ]},
    {"smiles": "C/C(O)=C(\\C#N)C(=O)c1ccc(F)cc1", "note": "[Cis-2-(p-fluorobenzoyl)-3-hydroxycrotononitrile]", "values": [
      {"measurement": "inhibition in vivo at 25 mg/kg", "setting": "[2]; [4]", "value": 65, "unit": "%"},
      {"measurement": "inhibition in vivo at 25 mg/kg", "setting": "[2]; [5]", "value": 30, "unit": "%"},
      {"measurement": "#Actives/Total Tests", "setting": "[3]; 5×10^-5 M", "value": "4/4"}
    ]},
    {"smiles": "COc1ccccc1C(=O)/C(C#N)=C(/C)O", "note": "[Cis-3-hydroxy-2-(o-anisoyl)crotononitrile]", "values": [
      {"measurement": "C/T Ratio (edema of control animals/edema of treated animals)", "setting": "[1]", "value": 1.30},
      {"measurement": "#Actives/Total Tests", "setting": "[3]; 5×10^-5 M", "value": "4/5"}
    ]},
    {"smiles": "COc1ccc(C(=O)/C(C#N)=C(/C)O)cc1", "note": "[Cis-3-hydroxy-2-(p-methoxybenzoyl)crotononitrile]", "values": [
      {"measurement": "C/T Ratio (edema of control animals/edema of treated animals)", "setting": "[1]", "value": 1.59}
    ]},
    {"smiles": "C/C(O)=C(\\C#N)C(=O)c1ccc(C(F)(F)F)cc1", "note": "[Cis-3-hydroxy-2-(α,α,α-trifluoro-p-toluoyl)crontononitril]", "values": [
      {"measurement": "C/T Ratio (edema of control animals/edema of treated animals)", "setting": "[1]", "value": 1.97},
      {"measurement": "inhibition in vivo at 25 mg/kg", "setting": "[2]; [4]", "value": 68, "unit": "%"},
      {"measurement": "inhibition in vivo at 25 mg/kg", "setting": "[2]; [5]", "value": 5, "unit": "%"}
    ]},
    {"smiles": "C/C(O)=C(\\C#N)C(=O)c1ccc(C)cc1", "note": "[Cis-3-hydroxy-2-p-toluoylcrotononitrile, Cis-3-hydroxy-2-(p-toluoyl)crotonitrile]", "values": [
      {"measurement": "C/T Ratio (edema of control animals/edema of treated animals)", "setting": "[1]", "value": 1.41}
    ]},
    {"smiles": "COc1ccc2c(c1)c(CC(=O)O)c(C)n2C(=O)c1ccc(Cl)cc1", "note": "[Indomethacin]", "values": [
      {"measurement": "effect on joint and bone deterioration", "setting": "arthritic paw swelling; S. Wong et al. 1973, G. R. Bobalick et al. 1974", "value": "prevent joint and bone deterioration"},
      {"measurement": "effect on arthritic paw swelling", "setting": "arthritic paw swelling; literature", "value": "inhibit arthritic paw swelling"}
    ]}
  ]
}
